According to patent publication US8871789B2, “Method of preventing or treating viral infection” (The United States of America, as represented by the …, priority 2010, dated 2014):

How the values were obtained:
HSV-1 = test: MRC-5 cells infected with HSV-1 at high MOI (IE mRNA, viral yields); format: cell-based
Protocol: FIG. 15 is a bar graph showing MRC-5 cells treated with DMSO or 50 mM ML324 that were infected with HSV-1 at the indicated multiplicity of infection (MOI). Viral IE and cellular mRNA levels were quantitated at 2 hours after infection. *P<0.0001, two-way ANOVA with Tukey's post hoc test. Data are means±SEM.
FIG. 16 is a bar graph showing MRC-5 cells treated with DMSO or 50 mM ML324 that were infected with HSV-1 at the indicated MOI. Viral yields were determined at 24 hours after infection. *P<0.0001, two-way ANOVA with Tukey's post hoc test. Data are means±SEM.

JMJD2E = target: T1, JMJD2E (Homo sapiens, UniProt B2RXH2); test: AlphaLISA assay, JMJD2E histone demethylase inhibition; format: biochemical; conditions: Table 2; JMJD2E; AlphaLISA, in triplicate; read-out: IC50
T1 sequence (B2RXH2 1-506): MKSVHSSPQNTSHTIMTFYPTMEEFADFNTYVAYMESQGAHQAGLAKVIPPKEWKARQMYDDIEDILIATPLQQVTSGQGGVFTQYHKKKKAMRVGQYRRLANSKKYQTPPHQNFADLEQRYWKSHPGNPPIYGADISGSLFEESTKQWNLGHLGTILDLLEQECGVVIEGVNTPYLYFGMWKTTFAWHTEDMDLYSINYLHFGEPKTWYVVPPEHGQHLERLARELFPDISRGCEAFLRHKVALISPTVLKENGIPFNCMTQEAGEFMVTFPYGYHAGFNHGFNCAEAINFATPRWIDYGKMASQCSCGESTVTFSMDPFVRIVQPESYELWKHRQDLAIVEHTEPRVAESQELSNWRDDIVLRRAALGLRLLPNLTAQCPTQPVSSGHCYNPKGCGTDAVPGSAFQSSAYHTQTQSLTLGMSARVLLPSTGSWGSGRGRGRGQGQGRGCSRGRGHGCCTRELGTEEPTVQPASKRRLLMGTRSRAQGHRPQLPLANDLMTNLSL

CN(C)CCCNC(=O)c1ccc(-c2cc(O)c3ncccc3c2)cc1 [Compound 4, N-(3-(dimethylamino)propyl)-4-(8-hydroxyquinolin-6-yl)benzamide]
viral IE gene transcription at high multiplicity of infection (HSV-1; 50 mM ML324, 2 hours after infection, FIG. 15): blocked | viral yields at high multiplicity of infection (HSV-1; 50 mM ML324, 24 hours after infection, FIG. 16): reduced | IC50 (JMJD2E): 920 nM
